This note sets out measurements from patent publication US6172205A, “Synthetic process toward total synthesis of eleutherobin and its analogues and uses thereof” (The Trustees of Columbia in the City of New York, priority 1998, dated 2001).

Each structure is given as a SMILES string. Where “and” joins values, the source holds several entries; their conditions need not be identical. Equal entries are not always repeated. Entries after “also recorded” stand apart in the source; their conditions may differ. Where two headings read alike, the source gives them in different places.

For data set [1], the system named is P-glycoprotein. The data set can be described thus: P-glycoprotein substrate behaviour inferred from resistance of SKVBL cells. The data set is classed as cell-based, human. The method, then:
(§1) Human non-small cell lung carcinoma cells, A549, were maintained in RPMI 1640 containing 10% fetal bovine serum and 1% penicillin-streptomycin (Gibco Laboratories, Grand Island N.Y.) at 37° C. in 7% CO2. The Taxol-resistant cell line A549-T12 was selected for resistance to Taxol and maintained in a final concentration of 12 nM drug (21). Human ovarian carcinoma cells SKOV3 and the MDR variant SKVBL (obtained from Dr. V. Ling) were maintained in α-mem plus ribonucleotides, deoxynucleotides, 15% fetal bovine serum and 1% penicillin-streptomycin (Gibco Laboratories) at 37° C. in 5% CO2. SKVBL cells were maintained in […] vinblastine (Sigma Chemical Co.).
(§2) Taxol-resistant and sensitive cell lines were seeded into 12-well plates at a density of 5×10^4 cells per well and allowed a period of 12 h for attachment prior to treatment. Cells were exposed to 10-fold serial dilutions of each compound (10^-10 to 10^-6 M) for 72 h. Cells were then trypsinized and counted (Coulter counter model ZF0031, Coulter Corp., Miami, Fla.). The IC50 was determined by plotting cell number against log of the drug concentration and this was used to determine the concentration of compound resulting in 50% growth inhibition compared to untreated cells. Each cell line was assayed in a minimum of 3 independent experiments with each compound and the results expressed as the mean IC50.
(§3) The cytotoxic efficacy of eleutherobin and its derivatives (FIG. 6) was evaluated in two drug sensitive human cancer cell lines and their Taxol-resistant counterparts. The results are summarized in Table I in order of decreasing potency. […] The Taxol-resistant cell line SKVBL overexpresses high levels of P-glycoprotein (22). […] The only difference between the two agents is the enantiomeric relationship in the carbohydrate (2'-acetylarabinose) sector (FIG. 6). […] This cell line expressed high levels of MDR1 resulting in Taxol-resistance equal or greater than 1666 -fold compared to the Taxol-sensitive SKOV3 cell line.

In data set [2] the test system is tubulin / microtubule protein. The data set can be described thus: Tubulin polymerization by turbidity at 350 nm in the absence of GTP. Format: biochemical, calf. Particulars: 10 μM; for tubulin polymerization (in words): 37 °C, absence of GTP. The protocol:
(§4) Eleutherobin and its derivatives were synthesized as described (18,19). Taxol was obtained from the Drug Development Branch, National Cancer Institute (Bethesda, Md.). All compounds were dissolved in dimethyl sulfoxide (Sigma Chemical Co., St. Louis, Mo.) at stock concentrations of 5 mM and stored at -20° C. All control samples contained an equal volume of DMSO. GTP was obtained from Sigma Chemical Co. And dissolved in sterile distilled water at a concentration of 10 mM and stored at -20° C. Microtubule protein was purified from calf brains by two cycles of temperature-dependent assembly and disassembly (20) and stored in liquid nitrogen prior to use. The anti-mouse β-tubulin monoclonal antibody T-4026 was obtained from Sigma Chemical Co.
The ability of each compound to polymerize tubulin was evaluated by recording the change in turbidity of microtubule protein at 350 nm for 80 min in a spectrophotometer (UVIKON, Research Instruments Int., SD, Calif.). One mg of purified microtubule protein was diluted in assembly buffer containing 0.1 M MES, 1 mM EGTA, 0.5 mM MgCl2 and 3 M glycerol, pH 6.6. All compounds were evaluated at a concentration of 10 μM at 37° C. […] Microtubule stability was assessed by the addition of 10 mM Ca^++. changes from t=0-10 min were used to calculate initial slopes from the linear portion of each curve. These values were used to calculate the activity of each compound (relative to the activity of Taxol which was assigned a value of 100%).
The polymerization activity of these compounds was also assessed by determining the slope of the linear portion of each curve at A350 nm (t=0-10 min), and expressing this relative to Taxol (which was assigned a value of 100% (FIG. 8). The order of activity of eleutherobin and derivatives using this method, corroborates the results obtained from cytotoxicity studies.

For data set [3], the system named is SKVBL (MDR variant of SKOV3). The data set can be described thus: Cytotoxicity by counting cells after 72 h, MDR variant cells. Particulars: for IC50: Homo sapiens, SK-OV-3, Ovarian Carcinoma SKOV3, Resistant (SKVBL), 72 h, mean of at least three independent experiments. Format: cell-based, human. The method, then: as §1, §2, §3
(§5) ^a Cytotoxicity determined by counting cells after 72 h drug exposure.

For data set [4], the system named is microtubule protein. The data set can be described thus: Stability of microtubules against Ca++-induced depolymerization. Format: biochemical, calf. The following applies: 10 mM CaCl2. The protocol:
as §4
(§6) The ability of each compound to polymerize tubulin was evaluated by recording the change in turbidity of microtubule protein at 350 nm for 80 min in a spectrophotometer (UVIKON, Research Instruments Int., SD, Calif.). One mg of purified microtubule protein was diluted in assembly buffer containing 0.1 M MES, 1 mM EGTA, 0.5 mM MgCl2 and 3 M glycerol, pH 6.6. All compounds were evaluated at a concentration of 10 μM at 37° C. GTP was used at a final concentration of 1 mM. Microtubule stability was assessed by the addition of 10 mM Ca^++. changes from t=0-10 min were used to calculate initial slopes from the linear portion of each curve. These values were used to calculate the activity of each compound (relative to the activity of Taxol which was assigned a value of 100%).
The ability of each compound to polymerize and/or stabilize microtubules was assessed (FIG. 7). To investigate whether eleutherobin and its derivatives shared the microtubule stabilizing properties of Taxol, 10 mM CaCl2 was added to each sample after maximum microtubule polymerization occurred, and the effects on turbidity recorded spectrophotometrically. A positive control was included in which 1 mM GTP was used to confirm the ability of GTP-stabilized microtubules to undergo Ca^++ induced depolymerization.
The ability of this compound to stabilize microtubules formed in the presence of GTP was examined. After a period of 15 min, 10 mM Ca^++ was added and the change in turbidity recorded.

A short description of data set [5]: Overall biological activity, all parameters tested. The protocol: as §2, §6
(§7) NIH 3T3 cells were grown to subconfluency on glass converslips in 35 mm plastic petri dishes. Cells were exposed to 2 μM of Taxol and each of the experimental compounds for 5.5 h at 37° C., rinsed twice in PBS and extracted with 0.5% Triton-X-100 in microtubule stabilizing buffer (PEM) (100 mM PIPES, 2 mM EGTA and 2 mM MgCl2, pH 6.8) for 4 min. Following a wash in PEM, the cells were fixed for 40 min at room temperature in 3% formaldehyde in PEM followed by incubation in 0.1 M glycine in PBS for 10 min and washing (four times) in PEM containing 5 μM EGTA. Following blocking in 20% normal goat serum (NGS) for 30 min at room temperature, cells were incubated for 1 h at 37° C. with a 1:100 dilution of β-tubulin mAb diluted in 10% NGS, washed twice in 1% BSA, once in PBS and three times in 1% BSA. Cells were then incubated in a 1:200 dilution of the secondary fluorophore antibody, IndocarbocyanineCY3 (Jackson Immunoresearch Laboratories Inc., Pa.) in 20% NGS for 20 min at room temperature. Finally cells were washed three times in 1% BSA and the dried slides mounted in 30% glycerol in PBS containing […]-phenylene diamine (1 mg/ml). Fixed slides were examined using a Zeiss Axioskop microscope.

Data set [6] concerns A549-T12 (Taxol-resistant A549). The data set can be described thus: Cytotoxicity by counting cells after 72 h, Taxol-resistant cells. Format: cell-based, human. The following applies: for fold resistance relative to the parental cell line: A549-T12 vs A549, 4320 min; for IC50: Homo sapiens, Lung Carcinoma A549, Resistant (A549-T12), 72 h, mean of at least three independent experiments. The protocol:
as §1, §2, §3, §5

In data set [7] the test system is Human non-small cell lung carcinoma cells, A549. The data set can be described thus: Cytotoxicity by counting cells after 72 h, Taxol-sensitive cells. The data set is classed as cell-based. Particulars: for IC50: Homo sapiens. The method, then:
Taxol-resistant and sensitive cell lines were seeded into 12-well plates at a density of 5×10^4 cells per well and allowed a period of 12 h for attachment prior to treatment. […] Cells were then trypsinized and counted (Coulter counter model ZF0031, Coulter Corp., Miami, Fla.).

Data set [8] concerns Human ovarian carcinoma cells SKOV3. Described as above. The data set is classed as cell-based. The protocol: as §1, §2, §5
The subject of data set [9] is cellular microtubules, NIH 3T3 cells. The data set can be described thus: Microtubule bundle formation by immunofluorescence. Format: cell-based. The following applies: 2 μM, 5.5 h; for microtubule bundle formation (in words): 37 °C. The method, then:
FIG. 9 immunofluorescence images NIH3T3 cells labeled with β-tubulin antibody following exposure to different drugs. A)DMSO; B)2 μM Taxol; C)2 μM eleutherobin; D)2 μM neo-eleutherobin; E)2 μM SKBII.294; F)2 μM SKBIII.13.
Illustrates the effects of eleutherobin and its derivatives on the morphology of cellular microtubules following exposure of cells to 2 μM of each compound for 5.5 h at 37° C. […] The number of micotic asters correlated with the extent of microtubule bundling in interphase cells.
as §7

Setting [10] is: sensitive cell lines (A549, SKOV3).

For the molecule `CO[C@]12C=C[C@](C)(O1)[C@@H](OC(=O)/C=C/c1cn(C)cn1)C[C@H]1C(C)=CC[C@H](C(C)C)[C@H]1C=C2CO[C@H]1OC[C@H](O)[C@H](O)[C@H]1OC(C)=O` [Neo-Eleutherobin], in data set [1], the “P-glycoprotein substrate (in words)” value is on record as “excellent substrates for P-glycoprotein”. In data set [2] (relative to eleutherobin), the “microtubule polymerization activity relative to eleutherobin” value is on record as 69%. For the same molecule, the IC50 is over 1000 nM in data set [3]; 146 nM in data set [6]; 125 nM in [7] (A549, 72 h); 134 nM in data set [8] (SK-OV-3, 72 h). Besides, the “cross-resistance in SKVBL (in words)” value in [3] (MDR1 expressing cells, high P-glycoprotein) was “exhibited cross-resistance in an MDR1 expressing cell line; also recorded: demonstrated cross-resistance”. The “stabilization against Ca++-induced depolymerization (in words)” value (“stabilization” for short) in data set [4] is “the microtubules formed also resisted Ca^++ -induced depolymerization”. In data set [5], the “biological activity (in words)” value is “less active than eleutherobin in all of the parameters examined”. In addition, in data set [6], the “fold resistance relative to the parental cell line” value is recorded as 1.2 fold. For the same molecule, in data set [6] (Taxol-resistant, not expressing P-glycoprotein), the “cross-resistance in A549-T12 (in words)” value is given as “neither eleutherobin nor neo-eleutherobin displayed cross-resistance; also recorded: neither of these compounds showed cross-resistance”. Moreover, the “fold less active / less cytotoxic than eleutherobin” value in data set [7] (setting [10]) is 20 fold and 14-20 fold. In data set [9], the “microtubule bundle formation (in words)” value is “the extent of bundling was reduced”. Besides, the “multiple asters in mitotic cells” value in [9] (data not shown) was “also seen in eleutherobin and neo-eleutherobin-treated cells”.

`CO[C@]12C=C[C@](C)(O1)[C@@H](O)C[C@H]1C(C)=CC[C@H](C(C)C)[C@H]1C=C2CO[C@@H]1OC[C@@H](O)[C@@H](O)[C@@H]1O` [SKBIII.13]: the “tubulin polymerization (in words)” value in data set [2] was “inactive in tubulin polymerization assays”; in data set [2] (listed as SKBII.13), “forfeited the ability to polymerize microtubules”. In data set [4], the “stabilization” value is on record as “unable to stabilize GTP-polymerized microtubules against Ca^++ induced depolymerization”. The “biological activity (in words)” value in data set [5] was “basically inactive by all parameters tested”; in data set [5] (listed as SKBII.13), “biologically inactive”. In addition, the half-inhibitory concentration (IC50) in data set [7] (Lung Carcinoma A549, Sensitive, 72 h, mean of at least three independent experiments, read-out: IC50) is 4150 nM; in data set [8] (SK-OV-3, Ovarian Carcinoma SKOV3, Sensitive, 72 h, mean of at least three independent experiments, read-out: IC50) it was over 5000 nM. In addition, in data set [7] (setting [10]), the “cytotoxicity (in words)” value is “its cytotoxicity is greatly reduced”. Further, in data set [9], the “microtubule bundle formation (in words)” value was “a fine microtubule network without bundle formation”.

With `CC(=O)O[C@H]1C(=O)[C@@]2(C)[C@H]([C@H](OC(=O)c3ccccc3)[C@]3(O)C[C@H](OC(=O)[C@H](O)[C@@H](NC(=O)c4ccccc4)c4ccccc4)C(C)=C1C3(C)C)[C@]1(OC(C)=O)CO[C@@H]1C[C@@H]2O` [Taxol, reference compound], the “P-glycoprotein substrate (in words)” value in data set [1] is on record as “excellent substrates for P-glycoprotein”. For the same molecule, the IC50 in data set [3] was over 5000 nM; in data set [6], 14.2 nM; in data set [7] (A549, 72 h) it was 2 nM; in data set [8] (SK-OV-3, 72 h), 3 nM. Also, the “fold resistance relative to the parental cell line” value in data set [3] (SKVBL vs SKOV3) is at least 1666 fold; in [6], 7 fold and 7.1 fold. Also, in data set [4], the “stabilization” value is given as “stabilized microtubules against Ca^++ -induced depolymerization”. The “microtubule bundle formation (in words)” value in [9] was “identical to that seen in Taxol-treated cells”.
